The values below come from patent US12077555B2, “STAT degraders and uses thereof” (Kymera Therapeutics, Inc., priority 2019, dated 2024).

The DC50 is the midpoint of the concentration-degradation curve.

The target of the assay is STAT3 (Homo sapiens, UniProt P40763). The assay is described as follows: Quantitation of STAT3 degradation in A549 cells by Western blot. The note with it: read-out: A549 DC50, 24 hours, tested up to 30 μM or 10 μM. It is filed as cell-based. Details: expressed in transfected cells; host or cells: A549. The method, then: Degradation of total cellular STAT3 protein in A549 was quantitatively measured using SDS-PAGE and Western blot analysis. A549 cells (5×10^5 cells/well, 2 mL) were seeded into 6-well plates and were incubated in the incubator under 5% CO2 overnight to reach ˜80% confluency. The next day, the culture medium was changed with 1 ml fresh media. Then, 1 mL of media containing 2× compound solution was added into the well to make the final concentration of 30 μM, 10 μM, 3 μM, 1 μM, 0.3 μM and 0 μM (DMSO). The media was thoroughly mixed and incubated for 24 hours at 37° C. under 5% CO2. Then, the culture media was removed from the assay plates and the cells were washed with ice-cold PBS twice. To prepare cell lysates, 200 ul pre-chilled RIPA lysis buffer (Boston BioProducts BP-115D) with protease/phosphatase inhibitor (Roche 05892791001/Roche 04906837001) was added directly into the well to lyse the cells for 20 minutes on ice. The cell lysates were then transferred to centrifuge tubes. Insoluble part of lysates was removed by centrifuging the lysates at 13000 rpm for 20 minutes. The supernatant was then collected and mixed with 5× loading buffer (Beyotime Bio P0015) to make the final samples for SDS-PAGE analysis. The samples were heated at 100° C. for 10 minutes and cool to room temperature before centrifuging at 13000 rpm for 20 minutes. To analyze the samples by SDS-PAGE, 10 ul samples were loaded onto SDS-PAGE gel (Novex, WG1403BOX) and the SDS-PAGE gel was run for 20 minutes at 80 V, then at 120 V for 1.5 hours. The SDS-PAGE gel was then transferred to nitrocellulose membrane using the wet-transfer method at 250 mA for 1.5 hours. The membrane was then blocked with LI-COR blocking buffer (LI-COR, 927-50000) for 1 hour and was probed with primary antibody (mouse anti-STAT3 (124H6) (CST #91395) 1:2000 or mouse anti-beta-Actin (8H10D10) (CST #3700) 1:10000) at 4° C. overnight. The membrane was then washed three times with TBST buffer and probed with secondary antibody (anti-mouse IgG (LI-COR, 926-68070), 1:5000) for 1 hour at room temperature. The membrane was then scanned on a LI-COR Odyssey instrument and was quantified using Image Studio Version 5.2. Concentration at 50% degradation (DC50) was calculated by fitting dose dependent degradation data using a sigmoidal equation using GraphPad Prism Version 8.0.
(In general: A western blot detects proteins with antibodies after separation by electrophoresis.)

Each structure is given as a SMILES string.

Chain of STAT3 (P40763 whole entry): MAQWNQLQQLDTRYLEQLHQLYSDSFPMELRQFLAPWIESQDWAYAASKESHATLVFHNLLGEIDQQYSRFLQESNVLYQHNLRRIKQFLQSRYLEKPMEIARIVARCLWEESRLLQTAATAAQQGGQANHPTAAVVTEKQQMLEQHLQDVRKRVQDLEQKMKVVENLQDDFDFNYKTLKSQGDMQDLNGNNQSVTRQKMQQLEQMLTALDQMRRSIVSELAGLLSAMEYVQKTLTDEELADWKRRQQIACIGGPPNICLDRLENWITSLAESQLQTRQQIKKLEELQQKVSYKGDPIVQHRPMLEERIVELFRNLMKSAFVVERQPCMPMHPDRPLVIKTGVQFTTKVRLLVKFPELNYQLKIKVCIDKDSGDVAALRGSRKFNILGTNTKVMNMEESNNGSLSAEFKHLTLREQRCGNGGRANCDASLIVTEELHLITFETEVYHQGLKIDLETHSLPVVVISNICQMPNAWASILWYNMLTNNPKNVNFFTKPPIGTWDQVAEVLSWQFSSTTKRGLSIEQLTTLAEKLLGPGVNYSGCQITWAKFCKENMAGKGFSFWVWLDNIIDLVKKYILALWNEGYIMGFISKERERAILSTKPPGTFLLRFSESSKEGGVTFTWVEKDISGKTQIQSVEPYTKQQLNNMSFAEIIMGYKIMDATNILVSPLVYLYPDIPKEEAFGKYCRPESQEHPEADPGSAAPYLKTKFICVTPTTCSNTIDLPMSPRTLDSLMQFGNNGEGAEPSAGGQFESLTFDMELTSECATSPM

As to `C/C(=C\C(=O)N[C@H]1CN(C(=O)CCCCCC#Cc2cccc3c2CN(C2CCC(=O)NC2=O)C3=O)CC[C@H]2CC[C@@H](C(=O)N[C@@H](CCC(N)=O)C(=O)NC(c3ccccc3)c3ccccc3)N2C1=O)c1ccc(C(F)(F)P(=O)(O)O)cc1` (stereo partly drawn) [Compound I-115, ((4-((E)-4-(((5S,8S,10aR)-8-(((S)-5-amino-1-(benzhydrylamino)-1,5-dioxopentan-2-yl)carbamoyl)-3-(8-(2-(2,6-dioxopiperidin-3-yl)-1-oxoisoindolin-4-yl)oct-7-ynoyl)-6-oxodecahydropyrrolo[1,2-a][1,5]diazocin-5-yl)amino)-4-oxobut-2-en-2-yl)phenyl)difluoromethyl)phosphonic acid], the DC50 is < 30 µM.

Turning to `C/C(=C\C(=O)N[C@H]1CCc2cccc3c2N(C1=O)[C@H](C(=O)NC(CCC(N)=O)[C@@H](C)OCc1ccc(CCCOCCCCCc2ccc4c(c2)n(C)c(=O)n4C2CCC(=O)NC2=O)cc1)C3)c1ccc(C(F)(F)P(=O)(OCOC(=O)C(C)(C)C)OCOC(=O)C(C)(C)C)cc1` (stereo partly drawn) [Compound I-36, [([4-[(1E)-1-[[(2S,11S)-2-[[(3S,4R)-1-carbamoyl-4-([4-[3-([5-[1-(2,6-dioxopiperidin-3-yl)-3-methyl-2-oxo-1,3-benzodiazol-5-yl]pentyl]oxy)propyl]phenyl]methoxy)pentan-3-yl]carbamoyl]-12-oxo-1-azatricyclo[6.4.1.0^[4,13]]trideca-4(13),5,7-trien-11-yl]carbamoyl]prop-1-en-2-yl]phenyl]difluoromethyl([(2,2-dimethylpropanoyl)oxy]methoxy)phosphoryl)oxy]methyl 2,2-dimethylpropanoate], the DC50 was > 10 µM.

Take `C/C(=C\C(=O)N[C@H]1CCc2cccc3c2N(C1=O)[C@H](C(=O)N[C@@H](CCC(N)=O)[C@@H](C)OCCCc1ccc2c(c1)n(C)c(=O)n2C1CCC(=O)NC1=O)C3)c1ccc(C(F)(F)P(=O)(O)O)cc1` (stereo partly drawn) [Compound I-110, diammonium [4-[(1E)-1-[[(2S,11S)-2-[[(3S,4R)-1-carbamoyl-4-[3-[1-(2,6-dioxopiperidin-3-yl)-3-methyl-2-oxo-1,3-benzodiazol-5-yl]propoxy]pentan-3-yl]carbamoyl]-12-oxo-1-azatricyclo[6.4.1.0^[4,13]]trideca-4(13),5,7-trien-11-yl]carbamoyl]prop-1-en-2-yl]phenyl]difluoromethylphosphonate]: the DC50 is > 30 µM.

For the molecule `Cn1c(=O)n(C2CCC(=O)NC2=O)c2ccc(CCCCCC(=O)N3CC[C@H]4CC[C@@H](C(=O)N[C@@H](CCC(N)=O)C(=O)NC(c5ccccc5)c5ccccc5)N4C(=O)[C@@H](NC(=O)c4cc5cc(C(=O)P(=O)(O)O)ccc5[nH]4)C3)cc21` (stereo partly drawn) [Compound I-107, 2-[[(5S,8S,10aR)-8-[[(1S)-3-carbamoyl-1-(diphenylmethylcarbamoyl)propyl]carbamoyl]-3-[6-[1-(2,6-dioxopiperidin-3-yl)-3-methyl-2-oxo-1,3-benzodiazol-5-yl]hexanoyl]-6-oxo-octahydropyrrolo[1,2-a][1,5]diazocin-5-yl]carbamoyl]-1H-indole-5-carbonylphosphonic acid], the DC50 was < 30 µM.

For the molecule `C/C(=C\C(=O)N[C@H]1CCc2cccc3c2N(C1=O)[C@H](C(=O)N[C@@H](CCC(N)=O)[C@@H](C)OCc1ccc(CCCCC(=O)N[C@H](C(=O)N2C[C@@H](O)C[C@H]2C(=O)NCc2ccc(-c4scnc4C)cc2)C(C)(C)C)cc1)C3)c1ccc(C(F)(F)P(=O)(OCOC(=O)C(C)(C)C)OCOC(=O)C(C)(C)C)cc1` [Compound I-2], the DC50 was > 30 µM.

As to `C/C(=C\C(=O)N[C@H]1CCc2cccc3c2N(C1=O)[C@H](C(=O)NC(CCC(N)=O)[C@@H](C)OCc1ccc(CCCOCCOCC(=O)N[C@H](C(=O)N2C[C@H](O)C[C@H]2C(=O)NCc2ccc(-c4scnc4C)cc2)C(C)(C)C)cc1)C3)c1ccc(C(F)(F)P(=O)(OCOC(=O)C(C)(C)C)OCOC(=O)C(C)(C)C)cc1` (stereo partly shown) [Compound I-37], the DC50 was > 10 µM.

As to `C/C(=C\C(=O)N[C@H]1CCc2cccc3c2N(C1=O)[C@H](C(=O)N[C@@H](CCC(N)=O)[C@@H](C)OCc1ccc(CCOCCOCC(=O)N[C@H](C(=O)N2C[C@H](O)C[C@H]2C(=O)NCc2ccc(-c4scnc4C)cc2)C(C)(C)C)cc1)C3)c1ccc(C(F)(F)P(=O)(OCOC(=O)C(C)(C)C)OCOC(=O)C(C)(C)C)cc1` [Compound I-31], the DC50 is > 30 µM.

On to `C/C(=C\C(=O)N[C@H]1CCc2cccc3c2N(C1=O)[C@H](C(=O)NC(CCC(N)=O)[C@@H](C)OCc1ccc(CCCOCCCCCOCCCc2cccc4c2n(C)c(=O)n4C2CCC(=O)NC2=O)cc1)C3)c1ccc(C(F)(F)P(=O)(OCOC(=O)C(C)(C)C)OCOC(=O)C(C)(C)C)cc1` (stereo partly shown) [Compound I-43], for which the DC50 was > 30 µM.

Regarding `C/C(=C\C(=O)N[C@H]1CCc2cccc3c2N(C1=O)[C@H](C(=O)NC(CCC(N)=O)[C@@H](C)OCc1ccc(CCCOCCCCCCOCCCc2cccc4c2n(C)c(=O)n4C2CCC(=O)NC2=O)cc1)C3)c1ccc(C(F)(F)P(=O)(OCOC(=O)C(C)(C)C)OCOC(=O)C(C)(C)C)cc1` (stereo partly shown) [Compound I-44], the DC50 was > 30 µM.

As to `Cn1c(=O)n(C2CCC(=O)NC2=O)c2ccc(C#CCCCC(=O)N3CC[C@H]4CC[C@@H](C(=O)N[C@@H](CCC(N)=O)C(=O)NC(c5ccccc5)c5ccccc5)N4C(=O)[C@@H](NC(=O)c4cc5cc(C(=O)P(=O)(O)O)ccc5[nH]4)C3)cc21` (stereo partly drawn) [Compound I-105, 2-[[(5S,8S,10aR)-8-[[(1S)-3-carbamoyl-1-(diphenylmethylcarbamoyl)propyl]carbamoyl]-3-[6-[1-(2,6-dioxopiperidin-3-yl)-3-methyl-2-oxo-1,3-benzodiazol-5-yl]hex-5-ynoyl]-6-oxo-octahydropyrrolo[1,2-a][1,5]diazocin-5-yl]carbamoyl]-1H-indole-5-carbonylphosphonic acid], the DC50 was < 30 µM.

For `C/C(=C\C(=O)N[C@H]1CCc2cccc3c2N(C1=O)[C@H](C(=O)N[C@@H](CCC(N)=O)[C@@H](C)OCc1ccc(CC(=O)N[C@H](C(=O)N2C[C@H](O)C[C@H]2C(=O)NCc2ccc(-c4scnc4C)cc2)C(C)(C)C)cc1)C3)c1ccc(C(F)(F)P(=O)(OCOC(=O)C(C)(C)C)OCOC(=O)C(C)(C)C)cc1` [Compound I-4], the DC50 was > 30 µM.

Regarding `Cc1ncsc1-c1ccc(CNC(=O)C2C[C@@H](O)CN2C(=O)[C@@H](NC(=O)CCCc2ccc(CO[C@H](C)[C@H](CCC(N)=O)NC(=O)[C@@H]3Cc4cccc5c4N3C(=O)[C@@H](NC(=O)c3cc4cc(C(=O)P(=O)(O)O)ccc4[nH]3)CC5)cc2)C(C)(C)C)cc1` (stereo partly shown) [Compound I-101], the DC50 was < 30 µM.

Consider `C/C(=C\C(=O)N[C@H]1CCc2cccc3c2N(C1=O)[C@H](C(=O)N[C@@H](CCC(N)=O)[C@@H](C)OCc1ccc(CCCNC(=O)COCCCc2ccc4c(c2)n(C)c(=O)n4C2CCC(=O)NC2=O)cc1)C3)c1ccc(C(F)(F)P(=O)(OCOC(=O)C(C)(C)C)OCOC(=O)C(C)(C)C)cc1` (stereo partly shown) [Compound I-68], for which the DC50 is > 30 µM.
